Experimental data as given in ChEMBL document CHEMBL1255237, “Novel variant of the qnrB gene, qnrB12, in Citrobacter werkmanii” (2008).
≈ marks a conversion by molar mass, not a printed value. Residues, ends and D or L forms follow the SMILES beside them. *: point of attachment. βNA = c1ccc2cc(N*)ccc2c1

What was measured:
Type in all cases: functional
[1] = system: Escherichia coli; test: Antimicrobial activity against Escherichia coli TOP10 harboring pCR-Blunt2-TOPO carrying qnrB12 gene of Citrobacter werkmanii isolate CIT1 by broth macrodilution method
[2] = system: Citrobacter werkmanii; test: Antimicrobial activity against Citrobacter werkmanii isolate CIT2 harboring qnrB12 gene by broth macrodilution method
[3] = system: Citrobacter werkmanii; test: Antimicrobial activity against Citrobacter werkmanii isolate CIT3 harboring parC Leu88Gln mutant and qnrB12 gene by broth macrodilution method
[4] = system: Escherichia coli; test: Antimicrobial activity against Escherichia coli TOP10 harboring pCR-Blunt2-TOPO carrying qnrB12 gene of Citrobacter werkmanii isolate CIT2 by broth macrodilution method
[5] = system: Escherichia coli; test: Antimicrobial activity against Escherichia coli TOP10 harboring pCR-Blunt2-TOPO carrying qnrB12 gene of Citrobacter werkmanii isolate CIT3 by broth macrodilution method
[6] = system: Citrobacter werkmanii; test: Antimicrobial activity against nalidixic acid-resistant Citrobacter werkmanii isolate CIT1 harboring gyrA Thr83Ile, parC Ser57Thr mutant gene and qnrB12 gene by broth macrodilution method
[7] = system: Escherichia coli; test: Antimicrobial activity against Escherichia coli TOP10 by broth macrodilution method
[8] = system: Escherichia coli; test: Antimicrobial activity against Escherichia coli TOP10 harboring empty vector pCR-Blunt2-TOPO by broth macrodilution method
[9] = system: Escherichia coli; test: Antimicrobial activity against Escherichia coli TOP10 harboring pCR-Blunt2-TOPO carrying qnrB12 gene of Citrobacter werkmanii isolate CIT2 by broth macrodilution method in presence of 64 ug/ml Phe-Arg-beta-naphthylamide
[10] = system: Citrobacter werkmanii; test: Antimicrobial activity against nalidixic acid-resistant Citrobacter werkmanii isolate CIT1 harboring gyrA Thr83Ile, parC Ser57Thr mutant gene and qnrB12 gene by broth macrodilution method in presence of 64 ug/ml Phe-Arg-beta-naphthylamide
[11] = system: Escherichia coli; test: Antimicrobial activity against Escherichia coli TOP10 harboring pCR-Blunt2-TOPO carrying qnrB12 gene of Citrobacter werkmanii isolate CIT3 by broth macrodilution method in presence of 64 ug/ml Phe-Arg-beta-naphthylamide
[12] = system: Citrobacter werkmanii; test: Antimicrobial activity against Citrobacter werkmanii isolate CIT2 harboring qnrB12 gene by broth macrodilution method in presence of 64 ug/ml Phe-Arg-beta-naphthylamide
[13] = system: Escherichia coli; test: Antimicrobial activity against Escherichia coli TOP10 by broth macrodilution method in presence of 64 ug/ml Phe-Arg-beta-naphthylamide
[14] = system: Escherichia coli; test: Antimicrobial activity against Escherichia coli TOP10 harboring pCR-Blunt2-TOPO carrying qnrB12 gene of Citrobacter werkmanii isolate CIT1 by broth macrodilution method in presence of 64 ug/ml Phe-Arg-beta-naphthylamide
[15] = system: Escherichia coli; test: Antimicrobial activity against Escherichia coli TOP10 harboring empty vector pCR-Blunt2-TOPO by broth macrodilution method in presence of 64 ug/ml Phe-Arg-beta-naphthylamide
[16] = system: Citrobacter werkmanii; test: Antimicrobial activity against Citrobacter werkmanii isolate CIT3 harboring parC Leu88Gln mutant gene and qnrB12 gene by broth macrodilution method in presence of 64 ug/ml Phe-Arg-beta-naphthylamide

| SMILES | MIC [1] [µg/mL] | MIC [2] [µg/mL] | MIC [3] [µg/mL] | MIC [4] [µg/mL] | MIC [5] [µg/mL] | MIC [6] [µg/mL] | MIC [7] [µg/mL] | MIC [8] [µg/mL] | MIC [9] [µg/mL] | MIC [10] [µg/mL] | MIC [11] [µg/mL] | MIC [12] [µg/mL] | MIC [13] [µg/mL] | MIC [14] [µg/mL] | MIC [15] [µg/mL] | MIC [16] [µg/mL] |
| --- | --- | --- | --- | --- | --- | --- | --- | --- | --- | --- | --- | --- | --- | --- | --- | --- |
| N=C(N)NCCC[C@H](NC(=O)[C@@H](N)Cc1ccccc1)C(=O)Nc1ccc2ccccc2c1 [PABETAN] (H-Phe-Arg-βNA) | > 256 | 256 (≈ 573 µM) | 256 (≈ 573 µM) | > 256 | > 256 | > 256 | > 256 | > 256 | – | – | – | – | – | – | – | – |
| O=C(O)c1cn(C2CC2)c2cc(N3CCNCC3)c(F)cc2c1=O [CIPROFLOXACIN] | 0.0625 (≈ 0.189 µM) | 0.5 (≈ 1.51 µM) | 0.0625 (≈ 0.189 µM) | 0.0625 (≈ 0.189 µM) | 0.0625 (≈ 0.189 µM) | 1 (≈ 3.02 µM) | 0.00195 (≈ 0.00589 µM) | 0.00195 (≈ 0.00589 µM) | 0.0625 | 0.25 | 0.0625 | 0.0312 | 0.00195 | 0.0625 | 0.00195 | 0.0312 |
| CCn1cc(C(=O)O)c(=O)c2ccc(C)nc21 [NALIDIXIC ACID] | 8 (≈ 34.4 µM) | 8 (≈ 34.4 µM) | 8 (≈ 34.4 µM) | 8 (≈ 34.4 µM) | 8 (≈ 34.4 µM) | > 256 | 2 (≈ 8.61 µM) | 2 (≈ 8.61 µM) | 1 | 16 | 1 | 0.5 | 0.25 | 1 | 0.25 | 0.25 |
